This assay concerns the target T1, hTLR9 (Homo sapiens, UniProt Q9NR96).
T1 sequence (Q9NR96 26-1032): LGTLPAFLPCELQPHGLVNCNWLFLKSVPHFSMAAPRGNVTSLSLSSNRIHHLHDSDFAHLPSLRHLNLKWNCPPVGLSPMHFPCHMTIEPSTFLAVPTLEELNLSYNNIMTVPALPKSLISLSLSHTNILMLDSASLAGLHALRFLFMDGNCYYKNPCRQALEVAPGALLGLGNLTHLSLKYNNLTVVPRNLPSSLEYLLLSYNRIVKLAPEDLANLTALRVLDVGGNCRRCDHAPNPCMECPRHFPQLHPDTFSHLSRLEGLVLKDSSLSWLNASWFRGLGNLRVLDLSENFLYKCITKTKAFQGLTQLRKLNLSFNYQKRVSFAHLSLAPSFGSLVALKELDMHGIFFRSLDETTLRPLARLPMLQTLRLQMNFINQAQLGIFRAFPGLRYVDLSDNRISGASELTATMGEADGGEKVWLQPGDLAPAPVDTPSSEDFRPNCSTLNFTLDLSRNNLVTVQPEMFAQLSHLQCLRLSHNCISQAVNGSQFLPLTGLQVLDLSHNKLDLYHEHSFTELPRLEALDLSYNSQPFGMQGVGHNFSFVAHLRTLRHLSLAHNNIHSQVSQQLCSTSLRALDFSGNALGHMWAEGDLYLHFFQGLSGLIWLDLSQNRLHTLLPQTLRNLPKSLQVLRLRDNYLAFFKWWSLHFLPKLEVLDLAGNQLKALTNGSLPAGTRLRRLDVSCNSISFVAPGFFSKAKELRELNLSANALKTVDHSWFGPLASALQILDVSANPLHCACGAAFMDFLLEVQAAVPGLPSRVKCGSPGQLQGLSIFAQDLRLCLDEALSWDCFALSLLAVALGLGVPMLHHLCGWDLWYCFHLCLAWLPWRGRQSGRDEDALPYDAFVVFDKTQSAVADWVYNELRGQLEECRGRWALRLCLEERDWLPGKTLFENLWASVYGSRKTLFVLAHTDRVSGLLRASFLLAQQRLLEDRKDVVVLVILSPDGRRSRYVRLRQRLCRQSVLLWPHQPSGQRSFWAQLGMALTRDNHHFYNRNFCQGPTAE
The experiment in a line: HEK293-Blue-hTLR-9 cells assay (SEAP reporter, ODN2006 stimulation). Type of assay: cell-based. On the set-up: host or cells: HEK293 (HEK-Blue). The following applies: HEK293-Blue-hTLR9 cells, ODN2006, 20 hrs; read-out: HEK/hTLR9 IC50. The source says: A stable HEK293-Blue-hTLR-9 cell line was purchased from InvivoGen (Cat.#: hkb-htlr9, San Diego, California, USA). These cells were originally designed for studying the stimulation of human TLR9 by monitoring the activation of NF-κB. A SEAP (secreted embryonic alkaline phosphatase) reporter gene was placed under the control of the IFN-β minimal promoter fused to five NF-κB and AP-1-binding sites. The SEAP was induced by activating NF-κB and AP-1 via stimulating HEK-Blue hTLR9 cells with TLR9 ligands. Therefore, the reporter expression was declined by TLR9 antagonist under the stimulation of a ligand, such as ODN2006 (Cat.#: tlrl-2006-1, Invivogen, San Diego, California, USA), for incubation of 20 hrs. The cell culture supernatant SEAP reporter activity was determined using QUANTI-Blue™ kit (Cat.#: rep-qb 1, Invivogen, San Diego, California, USA) at a wavelength of 640 nm, a detection medium that turns purple or blue in the presence of alkaline phosphatase.
HEK293-Blue-hTLR9 cells were incubated at a density of 250,000-450,000 cells/mL in a volume of 170 µL in a 96-well plate in Dulbecco's Modified Eagle's medium (DMEM) containing 4.5 g/L glucose, 50 U/mL penicillin, […], […], 2 mM L-glutamine, 10% (v/v) heat-inactivated fetal bovine serum with addition of 20 µL test compound in a serial dilution in the presence of final DMSO at 1% and 10 µL of 20uM ODN2006 in above DMEM, perform incubation under 37 °C in a CO2 incubator for 20 hrs. Then 20 µL of the supernatant from each well was incubated with 180 µL Quanti-blue substrate solution at 37 °C for 2 hrs and the absorbance was read at 620-655 nm using a spectrophotometer. The signaling pathway that TLR9 activation leads to downstream NF-κB activation has been widely accepted, and therefore similar reporter assay was modified for evaluating TLR9 antagonist.

Each structure is given as a SMILES string.

Regarding `C[C@@H]1CN(c2ccc(C#N)c3ncccc23)C[C@H](CN2CCN(c3ccc4c(n3)CCNC4)C[C@H](O)C2)O1` (single isomer, unassigned) [Example 35A], the IC50 came out at 0.147 µM.

Turning to `C[C@@H]1CN(c2ccc(C#N)c3ncccc23)C[C@H](CN2CCN(c3ccc4c(n3)CCNC4)C[C@@H](O)C2)O1` (single isomer, unassigned) [Example 35B], the IC50 stood at 0.117 µM. Under `C[C@@H]1CN(c2ccc(C#N)c3ncccc23)C[C@H](CN2C[C@H]3CN(c4ccc5c(n4)CCNC5)CC[C@@H]32)O1` (single isomer, unassigned) [Example 54] stands less than 0.032 µM; under `C[C@@H]1CN(c2ccc(C#N)c3ncccc23)C[C@H](CN2C[C@H]3CN(c4ccc5c(n4)CCNC5)CC[C@H]32)O1` (single isomer, unassigned) [Example 55], less than 0.032 µM; under `C[C@@H]1CN(c2ccc(C#N)c3ncccc23)C[C@H](CN2CCN(c3ccc4c(n3)CN[C@@H]4C)CC2)O1` (single isomer, unassigned) [Example 64], 0.092 µM. Under `C[C@@H]1CN(c2ccc(C#N)c3ncccc23)C[C@H](CN2CCN(c3ccc4c(n3)[C@@H](C)NC4)CC2)O1` (single isomer, unassigned) [Example 65] stands 0.081 µM; under `C[C@@H]1CN(c2ccc(C#N)c3ncccc23)C[C@H](CN2CCN(c3ccc4c(n3)[C@H](C)NC4)CC2)O1` (single isomer, unassigned) [Example 66], 0.112 µM; under `C[C@@H]1CN(c2ccc(C#N)c3ncccc23)C[C@H](CN2CCN(c3cnc4c(c3)CN[C@@H]4C)CC2)O1` (single isomer, unassigned) [Example 68], 0.084 µM. For `C[C@@H]1CN(c2ccc(C#N)c3ncccc23)C[C@H](CN2CCN(c3cc4c(cn3)CN[C@@H](C)C4)CC2)O1` (single isomer, unassigned) [Example 71], the IC50 came to 0.091 µM. As for `C[C@@H]1CN(c2ccc(C#N)c3ncccc23)C[C@H](CN2CCN(c3cc4c(cn3)[C@H](C)NCC4)CC2)O1` (single isomer, unassigned) [Example 72], the IC50 amounted to 0.066 µM. The value for `C[C@@H]1CN(c2ccc(C#N)c3ncccc23)C[C@H](CN2CCN(c3cc4c(cn3)[C@@H](C)NCC4)CC2)O1` (single isomer, unassigned) [Example 73] was 0.082 µM.

Take `C[C@@H]1CN(c2ccc(C#N)c3ncccc23)C[C@H](CN2CCN(c3cc4c(cn3)CCN[C@H]4C)CC2)O1` (single isomer, unassigned) [Example 75]: the IC50 came out at 0.068 µM.

For the compound `C[C@@H]1CN(c2ccc(C#N)c3nccnc23)C[C@H](CN2CCN(c3ccc4c(n3)CN[C@@H]4C)CC2)O1` (single isomer, unassigned) [Example 79], the IC50 was 0.108 µM. Consider `C[C@@H]1CN(c2ccc(C#N)c3nccnc23)C[C@H](CN2CCN(c3cc4c(cn3)CN[C@@H](C)C4)CC2)O1` (single isomer, unassigned) [Example 84], for which the IC50 came out at 0.09 µM.

As for `C[C@@H]1CN(c2ccc(C#N)c3ncccc23)C[C@H](CN2CC3[C@H](C2)OCCN3c2ccc3c(n2)CCNC3)O1` (stereo in doubt) [Example 53, cis-5-[(2R,6S)-2-methyl-6-[[4-(5,6,7,8-tetrahydro-1,6-naphthyridin-2-yl)-2,3,4a,5,7,7a-hexahydropyrrolo[3,4-b][1,4]oxazin-6-yl]methyl]morpholin-4-yl]quinoline-8-carbonitrile], the IC50 worked out at 0.069 µM. Consider `C[C@@H]1CN(c2ccc(C#N)c3ncccc23)C[C@H](CN2CCN(c3cccc4c3CNC4)CC2)O1` [Example 2, 5-[(2S,6R)-2-[(4-isoindolin-4-ylpiperazin-1-yl)methyl]-6-methyl-morpholin-4-yl] quinoline-8-carbonitrile], for which the IC50 turned out to be 0.058 µM. The value for `C[C@@H]1CN(c2ccc(C#N)c3ncccc23)C[C@H](CN2CCN(c3ccc4c(c3)CNC4)[C@@H](CO)C2)O1` [Example 4, 5-[(2S,6R)-2-[[(3R)-3-(hydroxymethyl)-4-isoindolin-5-yl-piperazin-1-yl]methyl]-6-methyl-morpholin-4-yl]quinoline-8-carbonitrile] was 0.148 µM; that for `C[C@@H]1CN(c2ccc(C#N)c3ncccc23)C[C@H](CN2CCN(c3ccc4c(c3)CCNC4)CC2)O1` [Example 5, 5-[(2R,6S)-2-methyl-6-[[4-(1,2,3,4-tetrahydroisoquinolin-6-yl)piperazin-1-yl]methyl]morpholin-4-yl]quinoline-8-carbonitrile] was 0.064 µM; that for `C[C@@H]1CN(c2ccc(C#N)c3ncsc23)C[C@H](CN2CCN(c3cnc4c(c3)CNC4)CC2)O1` [Example 8, 7-[(2S,6R)-2-[[4-(6,7-dihydro-5H-pyrrolo[3,4-b]pyridin-3-yl)piperazin-1-yl]methyl]-6-methyl-morpholin-4-yl]-1,3-benzothiazole-4-carbonitrile] was 0.048 µM.

Regarding `C[C@@H]1CN(c2ccc(C#N)c3ncccc23)C[C@H](CN2CCN(c3ncc4c(n3)CNC4)CC2)O1` [Example 11, 5-[(2S,6R)-2-[[4-(6,7-dihydro-5Hpyrrolo[3,4-d]pyrimidin-2-yl)piperazin-1-yl]methyl]-6-methyl-morpholin-4-yl]quinoline-8-carbonitrile], the IC50 was 0.252 µM. Take `C[C@@H]1CN(c2ccc(C#N)c3ncccc23)C[C@H](CN2CCN(c3ncc4c(n3)CNCC4)CC2)O1` [Example 12, 5-[(2R,6S)-2-methyl-6-[[4-(5,6,7,8-tetrahydropyrido[3,4-d]pyrimidin-2-yl)piperazin-1-yl]methyl]morpholin-4-yl]quinoline-8-carbonitrile]: the IC50 was determined as 0.143 µM. The value for `C[C@@H]1CN(c2ccc(C#N)c3ncccc23)C[C@H](CN2CCN(c3ccc4c(n3)CCNC4)CC2)O1` [Example 14, 5-[(2R,6S)-2-methyl-6-[[4-(5,6,7,8-tetrahydro-1,6-naphthyridin-2-yl)piperazin-1-yl]methyl]morpholin-4-yl]quinoline-8-carbonitrile] was 0.058 µM. As for `C[C@@H]1CN(c2ccc(C#N)c3ncccc23)C[C@H](CN2CCN(c3ccc4c(c3)CNC4)CC2CO)O1` (stereo partly drawn) [Example 15, 5-[(2S,6R)-2-[[2-(hydroxymethyl)-4-isoindolin-5-yl-piperazin-1-yl]methyl]-6-methyl-morpholin-4-yl]quinoline-8-carbonitrile], the IC50 is 0.097 µM. Consider `C[C@@H]1CN(c2ccc(C#N)c3ncccc23)C[C@H](CN2CCN(c3ccc4c(c3)CN(CCO)C4)CC2)O1` [Example 16, 5-[(2S,6R)-2-[[4-[2-(2-hydroxyethyl)isoindolin-5-yl]piperazin-1-yl]methyl]-6-methyl-morpholin-4-yl]quinoline-8-carbonitrile], for which the IC50 amounted to 0.091 µM. Turning to `C[C@@H]1CN(c2ccc(C#N)c3ncccc23)C[C@H](CN2CCN(c3cnc4c(n3)CCNC4)CC2)O1` [Example 17, 5-[(2R,6S)-2-methyl-6-[[4-(5,6,7,8-tetrahydropyrido[3,4-b]pyrazin-2-yl)piperazin-1-yl]methyl]morpholin-4-yl]quinoline-8-carbonitrile], the IC50 came to 0.098 µM.

The record behind these values is patent publication EP3807270B1, “NOVEL HETEROARYL HETEROCYCLYL COMPOUNDS FOR THE TREATMENT OF AUTOIMMUNE DISEASE” (F. Hoffmann-La Roche AG, priority 2018, dated 2019).
